Measurements as given in patent US7910617B2 (Sankyo Company, Limited, priority 2004, dated 2011).

Assays:
[1] = tested on: Rat Peripheral Blood Lymphocyte Count; experiment: Measurement of rat peripheral blood lymphocyte count (relative count and ID50) after oral administration; format: in vivo; conditions: LEW rats; for Lymphocyte Count (Relative Value Based on a value of 100% for Normal Control Group) (%): blood collected 3 hours after administration, dose not given; for ID50 of rat peripheral blood lymphocyte count: dosage giving 50% inhibition rate of lymphocyte count
Protocol: Measurement of Rat Peripheral Blood Lymphocyte Count
• (1) LEW rats (males, age 5 weeks, Japan Charles River) were used in groups of 5 animals per group. • (2) Administration of Compounds
The compounds were suspended in 1% tragacanth liquid (solvent). The suspended compounds were orally administered to the rats using a gastric tube in a dose of 5 mL per kg of body weight. Furthermore, the solvent was administered instead of the suspended compounds to a normal control group. • (3) Measurement of Peripheral Blood Lymphocyte Count
Blood samples were collected from the descending vena cava under ether anesthesia 3 hours after administration of the solvent or suspended compounds, and then transferred to tubes containing EDTA.
The absolute lymphocyte counts were measured for the collected blood samples using a hematology testing device. Lymphocyte count lowering activity of the test compounds was calculated as a relative value (%) based on a value of 100% for the lymphocyte count of the normal control group.
Measurement of ID50 of Rat Peripheral Blood Lymphocyte Count (mg/kg)
Inhibition rate (%) ={1-(lymphocyte count of compound dose group/lymphocyte count of solvent dose group)}×100 The dosage of the compound that yielded a value of 50% for the inhibition rate was calculated as the ID50 value.

[2] = Rat pharmacokinetics (dosage: 1 mg/kg), blood compound concentrations; format: in vivo; conditions: male, whole blood, po, LEWIS rats, 1 mg/kg directly into the stomach; for AUC(0-t): read-out: AUC (0–24 h); for half-life: read-out: T½ (converted)
Protocol: Rat Pharmacokinetics (dosage: 1 mg/kg)
• (1) LEWIS rats (males, age 6 weeks, Japan Charles River) were used after acclimating for 1 week. 1 to 3 rats were used for each compound. • (2) Administration of Compounds
The compounds were dissolved in an aqueous physiological saline solution containing 4% (w/v) sulfobutyl ether β-cyclodextrin. The rats were administered the dissolved compounds directly into the stomach using a metal gastric tube in a dose of 2 mL per kg of body weight. • (3) Measurement of Blood Compound Concentrations
Blood samples were collected at 0.1 mL/animal/collection from the jugular vein using heparin as anticoagulant under ether anesthesia at predetermined times after administering the compounds. The blood samples were promptly treated with methanol after collection, and were placed in frozen storage until the time of measurement treatment. After treating the resulting blood samples by solid phase extraction, blood compound concentrations were measured with a high-performance liquid chromatograph-quadropole mass spectrometer. Various pharmacokinetic parameters were then calculated using pharmacokinetics analysis software (Winnonlin Professional) from the resulting blood concentrations.

Cmax [2] [ng/mL] | AUC(0-t) [2] [µg·h/mL] | half-life [2] [h] | SMILES | Lymphocyte Count (Relative Value Based on a value of 100% for Normal Control Group) (%) [1] [%] | ID50 of rat peripheral blood lymphocyte count [1] [mg/kg]
 |  |  | CC(N)(CO)CCc1ccc(C(=O)CCCCc2ccccc2)s1 (centres unmarked) [Comparative Compound 1, reference compound] | 30 | 
 |  |  | Cn1c(CC[C@@](C)(N)CO)ccc1C(=O)CCCc1ccccc1 [Comparative Compound 2, reference compound] | 31 | 0.78
19.4 | 0.288 | 15.6 | Cc1ccc(CCCC(=O)c2ccc(CC[C@@](C)(N)CO)n2C)cc1.Cl [Example 1, (2R) -2-Amino-2-methyl-4-{1-methyl-5-[4-(4-methylphenyl)butanoyl]pyrrol-2-yl}butan-1-ol hydrochloride] | 8 | 0.21
8.4 | 0.123 | 8.5 | Cc1ccc(CCCC(=O)c2ccc(CC[C@@](C)(N)CO)n2C)cc1C.Cl [Example 2, (2R)-2-Amino-2-methyl-4-{1-methyl-5-[4-(3,4-dimethylphenyl)butanoyl]pyrrol-2-yl}butan-1-ol hydrochloride] |  | 
 |  |  | Cc1ccc(CCCC(=O)c2ccc(CC[C@@](C)(N)CO)n2C)cc1C.Cl [Example 2] |  | 0.42
5.38 | 0.0717 | 6.04 | COc1ccc(CCCC(=O)c2ccc(CC[C@@](C)(N)CO)n2C)cc1C.Cl [Example 11, (2R)-2-Amino-2-methyl-4-{1-methyl-5-[4-(3-methyl-4-methoxyphenyl)butanoyl]pyrrol-2-yl}butan-1-ol hydrochloride] | 11 | 0.39
